In patent publication US20260262643A1, “HERBICIDAL BENZOXAZINES” (FMC CORPORATION, priority 2022, published 2026):

Legend:
ryegrass, Italian [1] = test: Test C preemergence; type: in vivo, Lolium multiflorum; settings: 0 to 100 scale (0 no effect, 100 complete control)
Procedure, shortened: (§1)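 Pre: seeds in loam/sand, directed soil spray. Post: 1–2 leaf plants, 2–10 cm. Cmpd in non-phytotoxic solvent + surfactant. Greenhouse 10 d; visual rating vs untreated, 0 = none, 100 = complete control.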

pigweed, palmer [2] = test: Test C preemergence; type: in vivo, Amaranthus palmeri; settings: 0 to 100 scale (0 no effect, 100 complete control)
Procedure, shortened: as §1

oat, wild [3] = test: Test C postemergence; type: in vivo, Avena fatua; settings: 10 days
Procedure, shortened: as §1

corn [4] = test: Test C postemergence; type: in vivo, Zea mays; settings: 10 days
Procedure, shortened: as §1

soybean [5] = test: Test C postemergence; type: in vivo, Glycine max; settings: 10 days
Procedure, shortened: as §1

rice = test: Test D flooded paddy test; type: in vivo, Oryza sativa; settings: 250 g ai/ha, applied to paddy water, visual rating after 13 to 14 days, scale 0 to 100 (0 no effect, 100 complete control)
Procedure, shortened: (§2)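 Visual ratings from 0, meaning no effect, to 100, meaning complete control, were assigned against untreated controls 13 to 14 days after compounds were added to the floodwater of pots kept 3 cm deep, with plants at the 2-leaf stage.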

ryegrass, Italian [6] = test: Test C postemergence; type: in vivo, Lolium multiflorum; settings: 10 days
Procedure, shortened: as §1

barnyardgrass [7] = test: Test D flooded paddy test; type: in vivo, Echinochloa crus-galli; settings: 250 g ai/ha, applied to paddy water, visual rating after 13 to 14 days, scale 0 to 100 (0 no effect, 100 complete control)
Procedure, shortened: as §2

green foxtail [8] = test: Test C postemergence; type: in vivo, Setaria viridis; settings: 10 days
Procedure, shortened: as §1

barnyardgrass [9] = test: Test C postemergence; type: in vivo, Echinochloa crusgalli; settings: 10 days
Procedure, shortened: as §1

wheat [10] = test: Test C preemergence; type: in vivo, Triticum aestivum; settings: 0 to 100 scale (0 no effect, 100 complete control)
Procedure, shortened: as §1

ducksalad = test: Test D flooded paddy test; type: in vivo, Heteranthera limosa; settings: 250 g ai/ha, applied to paddy water, visual rating after 13 to 14 days, scale 0 to 100 (0 no effect, 100 complete control)
Procedure, shortened: as §2

pigweed, palmer [11] = test: Test C postemergence; type: in vivo, Amaranthus palmeri; settings: 10 days
Procedure, shortened: as §1

kochia [12] = test: Test C postemergence; type: in vivo, Bassia scoparia; settings: 10 days
Procedure, shortened: as §1

ragweed [13] = test: Test C preemergence; type: in vivo, Ambrosia artemisiifolia; settings: 0 to 100 scale (0 no effect, 100 complete control)
Procedure, shortened: as §1

blackgrass [14] = test: Test C preemergence; type: in vivo, Alopecurus myosuroides; settings: 0 to 100 scale (0 no effect, 100 complete control)
Procedure, shortened: as §1

blackgrass [15] = test: Test C postemergence; type: in vivo, Alopecurus myosuroides; settings: 10 days
Procedure, shortened: as §1

green foxtail [16] = test: Test C preemergence; type: in vivo, Setaria viridis; settings: 0 to 100 scale (0 no effect, 100 complete control)
Procedure, shortened: as §1

galium = test: Test C postemergence; type: in vivo, Galium aparine; settings: 10 days
Procedure, shortened: as §1

barnyardgrass [17] = test: Test C preemergence; type: in vivo, Echinochloa crusgalli; settings: 0 to 100 scale (0 no effect, 100 complete control)
Procedure, shortened: as §1

wheat [18] = test: Test C postemergence; type: in vivo, Triticum aestivum; settings: 10 days
Procedure, shortened: as §1

oat, wild [19] = test: Test C preemergence; type: in vivo, Avena fatua; settings: 0 to 100 scale (0 no effect, 100 complete control)
Procedure, shortened: as §1

ragweed [20] = test: Test C postemergence; type: in vivo, Ambrosia artemisiifolia; settings: 10 days
Procedure, shortened: as §1

sedge, umbrella = test: Test D flooded paddy test; type: in vivo, Cyperus difformis; settings: 250 g ai/ha, applied to paddy water, visual rating after 13 to 14 days, scale 0 to 100 (0 no effect, 100 complete control)
Procedure, shortened: as §2

horseweed = test: Test C postemergence; type: in vivo, Erigeron canadensis; settings: 10 days
Procedure, shortened: as §1

corn [21] = test: Test C preemergence; type: in vivo, Zea mays; settings: 0 to 100 scale (0 no effect, 100 complete control)
Procedure, shortened: as §1

kochia [22] = test: Test C preemergence; type: in vivo, Bassia scoparia; settings: 0 to 100 scale (0 no effect, 100 complete control)
Procedure, shortened: as §1

soybean [23] = test: Test C preemergence; type: in vivo, Glycine max; settings: 0 to 100 scale (0 no effect, 100 complete control)
Procedure, shortened: as §1

[24] = Preemergence, 500 g ai/ha, visual rating after 10 days
[25] = Test C, preemergence, 125 g ai/ha
[26] = 125 g ai/ha, postemergence, 0 to 100 scale, 0 no effect, 100 complete control
[27] = Postemergence, 500 g ai/ha, visual 0 to 100 scale (0 no effect, 100 complete control)

Structure (SMILES): CCc1c(F)cc(-n2cnc(C(C)C)n2)cc1C(=O)N1C[C@H](C)Oc2c(Cl)cccc21 [Compound 152]
- Plant response rating, Ryegrass, Italian (ryegrass, Italian [1]; [24]): 90
- Ryegrass, Italian plant response rating (ryegrass, Italian [1]; [25]): 70
- Plant response rating, Pigweed, Palmer (pigweed, palmer [2]; [24]): 90
- Pigweed, Palmer plant response rating (pigweed, palmer [2]; [25]): 90
- Plant response rating, Oat, Wild (oat, wild [3]; [26]): 0
- Plant response rating, Oat, Wild (oat, wild [3]; [27]): 30
- Plant response rating, Corn (corn [4]; [26]): 40
- Plant response rating, Corn (corn [4]; [27]): 70
- Plant response rating, Soybean (soybean [5]; [26]): 100
- Plant response rating, Soybean (soybean [5]; [27]): 100
- Plant response rating, Rice (Flood) (rice): 0
- Plant response rating, Ryegrass, Italian (ryegrass, Italian [6]; [26]): 30
- Plant response rating, Ryegrass, Italian (ryegrass, Italian [6]; [27]): 60
- Plant response rating, Barnyardgrass (Flood) (barnyardgrass [7]): 0
- Plant response rating, Foxtail, Green (green foxtail [8]; [26]): 40
- Plant response rating, Foxtail, Green (green foxtail [8]; [27]): 90
- Plant response rating, Barnyardgrass (barnyardgrass [9]; [26]): 60
- Plant response rating, Barnyardgrass (barnyardgrass [9]; [27]): 90
- Plant response rating, Wheat (wheat [10]; [24]): 40
- Wheat plant response rating (wheat [10]; [25]): 20
- Plant response rating, Ducksalad (Flood) (ducksalad): 0
- Plant response rating, Pigweed, Palmer (pigweed, palmer [11]; [26]): 80
- Plant response rating, Pigweed, Palmer (pigweed, palmer [11]; [27]): 90
- Plant response rating, Kochia (kochia [12]; [26]): 80
- Plant response rating, Kochia (kochia [12]; [27]): 80
- Plant response rating, Ragweed (ragweed [13]; [24]): 0
- Ragweed plant response rating (ragweed [13]; [25]): 0
- Plant response rating, Blackgrass (blackgrass [14]; [24]): 60
- Blackgrass plant response rating (blackgrass [14]; [25]): 50
- Plant response rating, Blackgrass (blackgrass [15]; [26]): 50
- Plant response rating, Blackgrass (blackgrass [15]; [27]): 70
- Plant response rating, Foxtail, Green (green foxtail [16]; [24]): 100
- Foxtail, Green plant response rating (green foxtail [16]; [25]): 100
- Plant response rating, Galium (galium; [26]): 100
- Plant response rating, Galium (galium; [27]): 100
- Barnyardgrass plant response rating (barnyardgrass [17]; 125 g ai/ha, preemergence): 70
- Plant response rating, Barnyardgrass (barnyardgrass [17]; [24]): 90
- Plant response rating, Wheat (wheat [18]; [26]): 20
- Plant response rating, Wheat (wheat [18]; [27]): 20
- Plant response rating, Oat, Wild (oat, wild [19]; [24]): 70
- Oat, Wild plant response rating (oat, wild [19]; [25]): 60
- Plant response rating, Ragweed (ragweed [20]; [26]): 40
- Plant response rating, Ragweed (ragweed [20]; [27]): 60
- Plant response rating, Sedge, Umbrella (Flood) (sedge, umbrella): 0
- Plant response rating, Horseweed (horseweed; [26]): 0
- Plant response rating, Horseweed (horseweed; [27]): 0
- Plant response rating, Corn (corn [21]; [24]): 50
- Corn plant response rating (corn [21]; [25]): 30
- Plant response rating, Kochia (kochia [22]; [24]): 90
- Kochia plant response rating (kochia [22]; [25]): 40
- Plant response rating, Soybean (soybean [23]; [24]): 70
- Soybean plant response rating (soybean [23]; [25]): 50
